The values that follow come from paper PMC12232896 (Angewandte Chemie (International Ed. in English), 2025).

Where only a bound is given, the exact number is not on record here.

One assay concerns the target PvPI4Kβ (Plasmodium vivax, UniProt A5KB26). More on the design: method as in PMID 33590753, PMID 28446690, PMID 30249687. To be noted: same assay; cited from earlier work.
Another assay has as its system Pf3D7 strain. The following applies: cited from earlier work.
Another assay concerns P. berghei. More on the design: method as in earlier work. To be noted: 4 × 30 mg/kg; cited from earlier work.
The target in another assay is T1, HsMAP4K4 (Homo sapiens, UniProt O95819).
T1 construct: purchased Reaction Biology
T1 sequence (O95819 whole entry): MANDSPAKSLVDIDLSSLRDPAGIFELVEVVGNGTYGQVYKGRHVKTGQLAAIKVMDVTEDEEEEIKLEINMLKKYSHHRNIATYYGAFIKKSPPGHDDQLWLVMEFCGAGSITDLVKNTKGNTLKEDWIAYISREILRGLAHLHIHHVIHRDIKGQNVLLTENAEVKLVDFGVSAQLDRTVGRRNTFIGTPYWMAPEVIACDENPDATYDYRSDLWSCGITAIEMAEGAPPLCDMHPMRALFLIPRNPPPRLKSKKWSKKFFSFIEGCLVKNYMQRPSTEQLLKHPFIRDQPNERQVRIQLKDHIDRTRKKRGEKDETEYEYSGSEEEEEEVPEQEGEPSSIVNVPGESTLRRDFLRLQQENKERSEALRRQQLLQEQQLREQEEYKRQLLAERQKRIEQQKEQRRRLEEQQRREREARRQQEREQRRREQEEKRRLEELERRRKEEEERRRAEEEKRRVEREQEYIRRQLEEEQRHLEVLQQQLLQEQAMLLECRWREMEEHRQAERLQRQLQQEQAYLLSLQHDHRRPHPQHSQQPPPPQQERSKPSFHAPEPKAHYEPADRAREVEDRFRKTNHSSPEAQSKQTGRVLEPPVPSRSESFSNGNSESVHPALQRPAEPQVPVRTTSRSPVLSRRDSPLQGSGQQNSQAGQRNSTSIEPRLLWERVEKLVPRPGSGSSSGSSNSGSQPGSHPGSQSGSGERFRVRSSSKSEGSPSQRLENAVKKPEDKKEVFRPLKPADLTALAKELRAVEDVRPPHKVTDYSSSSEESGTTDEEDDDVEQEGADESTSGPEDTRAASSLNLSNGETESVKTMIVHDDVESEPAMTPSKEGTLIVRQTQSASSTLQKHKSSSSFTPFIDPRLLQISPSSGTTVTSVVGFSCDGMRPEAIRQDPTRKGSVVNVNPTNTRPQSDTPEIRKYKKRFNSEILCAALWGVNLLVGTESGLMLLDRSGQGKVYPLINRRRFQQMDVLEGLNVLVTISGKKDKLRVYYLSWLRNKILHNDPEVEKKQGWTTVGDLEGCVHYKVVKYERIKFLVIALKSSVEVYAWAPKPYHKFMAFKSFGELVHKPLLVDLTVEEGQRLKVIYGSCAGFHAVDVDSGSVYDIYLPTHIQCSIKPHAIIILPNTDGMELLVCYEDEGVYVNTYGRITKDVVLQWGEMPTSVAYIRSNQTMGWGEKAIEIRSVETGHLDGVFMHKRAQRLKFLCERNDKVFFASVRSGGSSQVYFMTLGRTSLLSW
The experiment in a line: HsMAP4K4 ADP-Glo kinase assay. In kind it is biochemical. The following applies: reference compound, 10 µM ATP. (In ADP-Glo the light output rises with the ADP produced.)

For another assay, the target named is T2, HsMINK1 (Homo sapiens, UniProt Q8N4C8).
T2 construct: purchased Reaction Biology
T2 sequence (Q8N4C8 whole entry): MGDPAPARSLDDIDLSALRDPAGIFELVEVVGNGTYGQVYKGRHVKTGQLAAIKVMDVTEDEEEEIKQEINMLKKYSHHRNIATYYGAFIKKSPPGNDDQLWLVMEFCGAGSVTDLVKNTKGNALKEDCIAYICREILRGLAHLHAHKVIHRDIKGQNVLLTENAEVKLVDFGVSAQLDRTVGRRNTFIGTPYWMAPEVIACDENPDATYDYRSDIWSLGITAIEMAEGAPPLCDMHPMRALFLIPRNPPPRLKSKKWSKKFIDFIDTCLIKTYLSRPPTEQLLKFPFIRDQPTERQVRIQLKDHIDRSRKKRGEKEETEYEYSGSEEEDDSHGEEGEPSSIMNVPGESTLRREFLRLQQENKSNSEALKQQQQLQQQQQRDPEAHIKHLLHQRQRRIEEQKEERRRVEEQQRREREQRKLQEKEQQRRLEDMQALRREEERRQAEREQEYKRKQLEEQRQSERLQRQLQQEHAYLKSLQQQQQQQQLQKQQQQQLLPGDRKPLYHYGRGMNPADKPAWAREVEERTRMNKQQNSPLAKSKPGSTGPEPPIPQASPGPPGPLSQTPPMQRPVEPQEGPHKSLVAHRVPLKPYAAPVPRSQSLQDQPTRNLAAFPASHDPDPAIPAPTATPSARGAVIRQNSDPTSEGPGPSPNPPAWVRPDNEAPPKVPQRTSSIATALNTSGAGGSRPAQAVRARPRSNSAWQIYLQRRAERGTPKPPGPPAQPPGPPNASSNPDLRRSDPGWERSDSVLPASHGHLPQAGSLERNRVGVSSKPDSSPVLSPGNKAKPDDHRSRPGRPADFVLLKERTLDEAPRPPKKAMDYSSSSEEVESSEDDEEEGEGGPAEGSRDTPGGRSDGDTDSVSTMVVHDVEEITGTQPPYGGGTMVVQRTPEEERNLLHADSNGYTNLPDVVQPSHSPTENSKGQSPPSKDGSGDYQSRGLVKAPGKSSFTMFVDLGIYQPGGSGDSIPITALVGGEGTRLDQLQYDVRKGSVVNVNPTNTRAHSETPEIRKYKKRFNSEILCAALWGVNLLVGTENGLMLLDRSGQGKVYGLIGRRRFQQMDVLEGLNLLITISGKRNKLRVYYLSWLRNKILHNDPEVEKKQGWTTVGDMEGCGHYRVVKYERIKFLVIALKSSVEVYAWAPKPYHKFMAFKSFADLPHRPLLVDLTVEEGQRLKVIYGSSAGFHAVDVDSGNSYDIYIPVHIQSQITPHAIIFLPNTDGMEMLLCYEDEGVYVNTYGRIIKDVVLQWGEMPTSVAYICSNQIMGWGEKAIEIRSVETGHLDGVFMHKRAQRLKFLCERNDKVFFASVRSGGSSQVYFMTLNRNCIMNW
As to the kind of experiment: HsMINK1 ADP-Glo kinase assay. The class given is biochemical. The following applies: reference compound, 10 µM ATP.

PvPI4Kβ, sequence (A5KB26 entry or part of it): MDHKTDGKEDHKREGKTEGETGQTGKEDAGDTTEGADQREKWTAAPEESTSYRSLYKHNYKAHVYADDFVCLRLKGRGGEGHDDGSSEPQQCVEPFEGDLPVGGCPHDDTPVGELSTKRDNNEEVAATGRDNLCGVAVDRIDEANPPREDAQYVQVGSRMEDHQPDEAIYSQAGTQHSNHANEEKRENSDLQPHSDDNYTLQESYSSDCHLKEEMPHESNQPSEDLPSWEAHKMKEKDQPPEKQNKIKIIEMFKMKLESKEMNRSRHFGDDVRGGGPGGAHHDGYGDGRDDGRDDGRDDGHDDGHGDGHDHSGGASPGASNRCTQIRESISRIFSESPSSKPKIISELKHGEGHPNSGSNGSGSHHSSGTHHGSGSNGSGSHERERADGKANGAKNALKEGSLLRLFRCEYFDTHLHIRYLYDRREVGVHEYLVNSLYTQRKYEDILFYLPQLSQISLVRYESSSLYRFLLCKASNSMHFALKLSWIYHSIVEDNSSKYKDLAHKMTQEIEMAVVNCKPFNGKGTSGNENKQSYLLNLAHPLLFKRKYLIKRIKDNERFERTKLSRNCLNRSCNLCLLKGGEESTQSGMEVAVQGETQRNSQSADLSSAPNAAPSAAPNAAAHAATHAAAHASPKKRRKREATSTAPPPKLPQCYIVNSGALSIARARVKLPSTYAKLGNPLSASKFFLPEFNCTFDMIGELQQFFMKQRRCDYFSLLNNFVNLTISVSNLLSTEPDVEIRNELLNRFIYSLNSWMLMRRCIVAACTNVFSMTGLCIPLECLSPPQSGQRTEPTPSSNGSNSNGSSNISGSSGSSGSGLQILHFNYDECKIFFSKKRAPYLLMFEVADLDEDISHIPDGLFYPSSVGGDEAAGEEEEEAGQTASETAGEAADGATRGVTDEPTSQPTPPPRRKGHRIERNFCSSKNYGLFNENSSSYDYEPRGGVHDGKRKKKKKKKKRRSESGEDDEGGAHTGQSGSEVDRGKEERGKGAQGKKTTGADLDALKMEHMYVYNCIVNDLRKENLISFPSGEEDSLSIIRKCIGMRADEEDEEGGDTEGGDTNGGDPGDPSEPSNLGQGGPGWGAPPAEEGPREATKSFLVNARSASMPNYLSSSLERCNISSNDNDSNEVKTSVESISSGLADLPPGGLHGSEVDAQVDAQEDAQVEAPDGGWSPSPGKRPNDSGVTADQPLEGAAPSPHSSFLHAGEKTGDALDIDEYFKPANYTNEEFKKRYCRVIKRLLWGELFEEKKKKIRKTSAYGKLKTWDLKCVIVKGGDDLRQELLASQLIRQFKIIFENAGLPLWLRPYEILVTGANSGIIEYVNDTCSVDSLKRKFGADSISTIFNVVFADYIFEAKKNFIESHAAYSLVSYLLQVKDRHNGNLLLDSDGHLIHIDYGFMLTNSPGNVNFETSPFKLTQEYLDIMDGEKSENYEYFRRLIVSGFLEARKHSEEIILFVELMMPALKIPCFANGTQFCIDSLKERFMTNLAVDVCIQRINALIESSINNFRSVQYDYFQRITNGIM

In the case of `Nc1ncc(-c2ccc(C(=O)N3CCNCC3)cc2)nc1-c1ccc(C(F)(F)F)cc1` [UCT943], the IC50 (in general, the point on the concentration scale where inhibition reaches its midpoint) on PvPI4Kβ is < 5 nM. Also, in the assay on Pf3D7 strain, the logPRR was 2.5.
Consider `CCN(CC)CCCC(C)Nc1ccnc2cc(Cl)ccc12` (stereo not shown) [chloroquine], for which the reduction in parasitaemia in the assay on P. berghei is 99.9%.
Regarding `CN[C@@H]1C[C@H]2O[C@@](C)([C@@H]1OC)n1c3ccccc3c3c4c(c5c6ccccc6n2c5c31)C(=O)NC4` [staurosporine], the “inhibition HsMAP4K4” value at HsMAP4K4 is recorded as “nanomolar inhibition”. On HsMINK1, the “inhibition HsMINK1” value is “nanomolar inhibition”.
For the compound `CC(C)n1nc(-c2ccc3oc(N)nc3c2)c2c(N)ncnc21` [sapanisertib], the concentration for half-maximal inhibition (IC50) at PvPI4Kβ is < 5 nM.
With `C[C@H]1[C@H](OC(=O)CCC(=O)O)O[C@@H]2O[C@@]3(C)CC[C@H]4[C@H](C)CC[C@@H]1[C@@]24OO3` [artesunate], in the assay on P. berghei, the reduction in parasitaemia was 99%.
